US11752156B2, “Compositions and methods for treating hyperproliferative skin disorders” (Athenex HK Innovative Limited, priority 2018, dated 2023)

Key:
[1] = tested on: CCD-1106 KERTr keratinocytes; assay: inhibition of cell growth by tazarotene, keratinocytes; format: cell-based, human
From the text: FIG. 7: Inhibition of CCD1106 KERTr keratinocyte growth by tazarotene, as determined by staining.
(§1) Examples of suitable retinoids include retinol, retinal, retinoic acid isotretinoin, alitreninoin, etretinate, acitretin, adapalene, bexarotene, and/or tazarotene. FIGS. 7 and 8 show the effects of tazarotene on growth of cells in culture, including CCD-1106 KERTr keratinocytes (FIG. 7) and A431 cells (epidermoid cells obtained from a human squamous cell carcinoma, FIG. 8).

[2] = tested on: A431 cells (epidermoid cells obtained from a human squamous cell carcinoma); assay: inhibition of cell growth by tazarotene, A431; format: cell-based
From the text: FIG. 8: Inhibition of A431 cell growth by tazarotenee, as determined by staining.
as §1

[3] = tested on: cell proliferation/growth; assay: combined treatment with KX01 and tazarotene, inhibition of cell proliferation/growth; format: cell-based
From the text: as §1

IC50 ([2]; Homo sapiens, A-431, A431, model estimate): 36.3 µM
Structure (SMILES): CCOC(=O)c1ccc(C#Cc2ccc3c(c2)C(C)(C)CCS3)nc1 [Tazarotene, tazarotene]
IC50 ([1]; Homo sapiens, CCD-1106, model estimate): 12.4 µM
Maximum inhibition ([1]; model estimate): 0.903
H ([1]; steepness of slope): 2.11
Maximum inhibition ([2]; A431, model estimate): 1.09
H ([2]; A431, steepness of slope): 1.66
H [3]: 1.0
Imax [3]: 1.1
IC50 ([3]; column head says nM): 13300 nM
